Tests used:
NSCs [1] = assay: Western blotting and immunostaining of intracellular proteins in NSCs; assay type: cell-based, rat
Text: For western blotting, the following antibodies were used: Ki67 (1:200 Abcam), P85a (1:1000, Millipore), pAKT (ser 473, 1:500, Cell Signaling Technology), GSK-3b (ser 9, 1:1000. Santa Cruz Biotechnology), HSTF-1 (1:1000, Santa Cruz Biotechnology), anti-B cell lymphoma-2 (1:1000, Cell Signaling Technology), HMGB-1 (1:500, Cell Signaling Technology), Bax (1:1000, Cell Signaling Technology), Cytosolic cytochrome C (1:200, Cell Signaling Technology), Cleaved caspase 3 (Asp175, 1: 1000, Cell Signaling Technology), c-Myc (1: 1000, Cell Signaling Technology), GFP (1: 1000, Cell Signaling Technology), hTERT (1:500, Santa Cruz Biotechnology), and rTERT (1:500, Santa Cruz Biotechnology).
To confirm an intracellular signaling system, western blotting was performed after 48-hour treatment.
To obtain the mitochondria and a cytoplasmic protein, mitochondria/intracellular protein isolation kits were used (Abcam). All blots were observed using an ECL solution, and observed images were analyzed using an analysis program.
Immunostaining was carried out to confirm intracellular expression and locations. For immunostaining, the following antibodies were used: Ki67 (1:100 Abcam), rabbit anti-doublecortin (1 mg/mL; Abcam), rabbit anti-glial fibrillary acidic protein (GFAP) (1:5000; Abcam), rabbit anti-Tuj1 (1 mg/mL; Abcam), mouse anti-GalC (1 mg/mL; Millipore), and rabbit anti-HMGB1 (1:100; Cell Signaling Technology).
Data was observed using an Olympus fluorescence microscope, and suitable fluorescence was used.

oligomer Aβ = assay: Expression level of oligomer Aβ in 3XTg-AD mice (western blotting); assay type: in vivo; details: hippocampus and whole brain; vs control and Donepezil
Experimental: To test the efficacy of PEP1 on AD, AD transgenic mice (3XTg-AD) were purchased from Jackson Laboratory. Genetic characteristics of the transgenic mice are as follows: B6; 129-Psen1tm1Mpm Tg(APPSwe, tauP301L)1Lfa/Mmjax. […] One week after mice were confirmed as pregnant, new mice were delivered and weaned for 3 weeks. Two weeks later, mature mice were obtained.
During the preliminary breeding and the entire period of the experiment, a temperature was maintained at 23±2° C. and a relative humidity was maintained at 60±10%, and then the mice were raised under a 12-hour dark/light cycle. Experimental animals were divided into five groups, and each group included 10 animals. The divided experimental groups are as follows. […]
The PEP1, physiological saline, donepezil and scramble peptide were subcutaneously injected at each concentration three times a week for two months from the age of 12 months, and then two months after the injection, cognitive/memory behavior tests (passive avoidance test and Y maze test) were performed to examine a degree of improvement in cognitive function and memory function. After the brain was extracted to separate the hippocampus, the amounts of amyloid beta in the hippocampus and the whole brain, and the amounts of an amyloid beta oligomer and NFT generated by tau hyperphosphorylation were determined by western blotting and immunostaining. […]

NSCs [2] = assay: NSC proliferation (BrdU and CFU assays); assay type: cell-based, rat; details: 48 hours, BrdU
Experimental: NSCs were treated with different concentrations of PEP1 and 20 μM Aβ25-30 for 48 hours. Afterward, NSCs were cultured in bromodeoxyuridine (BrdU)-labeled media for 5 hours and observed using a kit. Cell division was evaluated by measuring absorbance at 370 nm and reference absorbance at 492 nm. All results were normalized based on a cell-free well.
A CFU assay was carried out by the following method. Briefly, 0.25×10^5 NSCs were plated in a 6-well plate, and treated with 20 μM Aβ25-30 and then with PEP1 at 1, 10 or 50 μM for 48 hours. The cells were washed with DPBS, and then the medium was exchanged with a fresh cell culture medium. Fourteen days later, the cells were washed again with DPBS, and stained with 0.5% crystal violet dissolved in methanol for 30 minutes at room temperature. Following staining, the plate was washed with DPBS and then dried. The number of colonies was observed using a stereoscopic microscope, and among these colonies, those smaller than 2 mm or faintly stained were removed.

Sequence: EARPALLTSRLRFIPK (homo sapiens) [PEP1, hTERT-derived peptide consisting of 16 amino acids, telomerase location [611-626]]
- apoptosis-associated proteins: Bax, cytoplasmic cytochrome C, cleaved caspase-3 (NSCs [1]; 20 μM Aβ25-35 + PEP1, 48 hours): significantly decreased
- ki67 (protein associated with proliferation ability) (NSCs [1]; 20 μM Aβ25-35 + PEP1, 48 hours): concentration-dependently increased
- proliferation-associated proteins: P85a PI3K, pAKT (Ser 473), phosphorylated GSK3-3b (Ser 9), HSTF-1, cytoplasmic HMGB-1 (NSCs [1]; 20 μM Aβ25-35 + PEP1, 48 hours): recovered
- HMGB1 expression in the cytoplasm (NSCs [1]; immunostaining, 20 μM Aβ25-35 + PEP1 co-treatment): concentration-dependently recovered
- expression level of oligomer Aβ (oligomer Aβ): decreased
- proliferation of NSCs (NSCs [2]; 20 μM Aβ25-35 + PEP1 up to 100 μM, vs 20 μM Aβ25-35 only, CFU): gradually increased
- proliferation (NSCs [2]; NSCs, PEP1 alone 0-200 μM, up to 100 μM): not influenced
